Data reported in patent US20250332178A1, “METHODS OF TREATING MYCOBACTERIAL INFECTIONS USING TETRACYCLINE COMPOUNDS” (priority 2018, published 2025).
Converted amounts (≈) assume the structure as drawn.

What was measured:
[1] = test system: M. abscessus complex; assay: MIC (CLSI broth dilution), RGM isolates; type: cell-based
[2] = test system: M. immunogenum group; assay: MIC (CLSI broth dilution), RGM isolates; type: cell-based; details: M. immunogenum
[3] = test system: M. smegmatis group; assay: MIC (CLSI broth dilution), RGM isolates; type: cell-based
[4] = test system: M. fortuitum group; assay: MIC (CLSI broth dilution), RGM isolates; type: cell-based
[5] = test system: M. chelonae; assay: MIC (CLSI broth dilution), RGM isolates; type: cell-based
[6] = test system: M. mucogenium group; assay: MIC (CLSI broth dilution), RGM isolates; type: cell-based
[7] = test system: rapid-growing mycobacteria (RGM) isolates; assay: MIC (CLSI broth dilution), all RGM isolates; type: cell-based, nontuberculous mycobacteria; details: all 50 RGM isolates
[8] = test system: Mycobacterium abscessus; assay: MIC by broth microdilution in CAMHB, clinical isolates; type: cell-based
Protocol: (§1) A total of 24 clinical isolates of Mycobacterium abscessus, 22 clinical isolates of Mycobacterium chelonae and 20 clinical isolates of Mycobacterium fortuitum were tested in the study. The study also used the antibiotics tigecycline, doxycycline and amikacin for comparison purposes. […] Amikacin was dissolved in DMSO prior to freezing at −20° C. For susceptibility testing, stock solutions of antibiotic compounds were serially diluted in 50 μL of cation adjusted Mueller-Hinton broth (CAMHB) in polystryrene 96-well round-bottom microtiter plates. To each well, 50 μL of the appropriate mycobacterial cell suspension was added to yield a final concentration of about 1×10^5 CFU/mL. The inoculum used for each isolate was measured by titration in saline with Tween 80 and plating on MH agar. The Mycobacterium abscessus and Mycobacterium fortuitum titer plates were incubated at 37° C. in ambient air for 3-4 days and 5-7 days, respectively. The Mycobacterium chelonae titer plates were incubated at 30° C. in ambient air for 3-5 days. Each isolate was tested at least in duplicate. The MIC was defined as the lowest concentration of antimicrobial agent yielding no visible turbidity.

[9] = test system: Mycobacterium fortuitum; assay: as above; type: cell-based
Protocol: as §1

[10] = test system: Mycobacterium chelonae; assay: as above; type: cell-based
Protocol: as §1

[11] = 24 clinical isolates (tigecycline: subset N=14)

C[C@H]1c2cccc(O)c2C(=O)C2=C(O)[C@]3(O)C(=O)C(C(N)=O)=C(O)[C@@H](N(C)C)[C@@H]3[C@@H](O)[C@@H]21 [Doxycycline, doxycycline]
MIC ([1]; isolate 1, M. abscessus complex, erm gene type MAB30): >8 µg/mL
MIC ([1]; isolate 2, M. abscessus complex, erm gene type MAB30): >8 µg/mL
MIC ([1]; isolate 3, M. abscessus complex, erm gene type MAB30): >8 µg/mL
MIC ([1]; isolate 4, M. abscessus complex, erm gene type massiliense): >8 µg/mL
MIC ([1]; isolate 5, M. abscessus complex, erm gene type massiliense/subsp. abs hybrid): >8 µg/mL
MIC ([1]; isolate 6, M. abscessus complex, erm gene type Type 1 abscessus): >8 µg/mL
MIC ([1]; isolate 7, M. abscessus complex, erm gene type Type 1 abscessus): >8 µg/mL
MIC ([1]; isolate 8, M. abscessus complex, erm gene type Type 1 abscessus): >8 µg/mL
MIC ([1]; isolate 9, M. abscessus complex, erm gene type Type 1 abscessus): >8 µg/mL
MIC ([1]; isolate 10, M. abscessus complex, erm gene type Type 1 abscessus): >8 µg/mL
MIC ([1]; isolate 11, M. abscessus complex, erm gene type Type 6 abscessus): >8 µg/mL
MIC ([1]; isolate 12, M. abscessus complex, erm gene type Type 6 abscessus): >8 µg/mL
MIC ([1]; isolate 13, M. abscessus complex, erm gene type Type 6 abscessus): >8 µg/mL
MIC ([1]; isolate 14, M. abscessus complex, erm gene type Type 6 abscessus): 8 µg/mL (≈ 18 µM)
MIC ([1]; isolate 15, M. abscessus complex, erm gene type Type 7 abscessus): >8 µg/mL
MIC ([1]; isolate 16, M. abscessus complex, erm gene type Type 7 abscessus): >8 µg/mL
MIC ([1]; isolate 17, M. abscessus complex, erm gene type Type 8 abscessus): >8 µg/mL
MIC ([2]; isolate 35, M. immunogenum group): >8 µg/mL
MIC ([2]; isolate 36, M. immunogenum group): 1 µg/mL (≈ 2.25 µM)
MIC ([2]; isolate 37, M. immunogenum group): >8 µg/mL
MIC ([2]; isolate 38, M. immunogenum group): >8 µg/mL
MIC ([3]; isolate 49, M. smegmatis group, M. goodii): ≤0.12 µg/mL
MIC ([3]; isolate 50, M. smegmatis group, M. wolinskyi): 1 µg/mL (≈ 2.25 µM)
MIC ([4]; isolate 23, M. fortuitum group, M. fortuitum): ≤0.12 µg/mL
MIC ([4]; isolate 24, M. fortuitum group, M. fortuitum): 0.25 µg/mL (≈ 0.563 µM)
MIC ([4]; isolate 25, M. fortuitum group, M. fortuitum): >8 µg/mL
MIC ([4]; isolate 26, M. fortuitum group, M. porcinum): 4 µg/mL (≈ 9 µM)
MIC ([4]; isolate 27, M. fortuitum group, M. porcinum): 8 µg/mL (≈ 18 µM)
MIC ([4]; isolate 28, M. fortuitum group, M. porcinum/M. boenickei): 2 µg/mL (≈ 4.5 µM)
MIC ([4]; isolate 29, M. fortuitum group, M. porcinum/M. boenickei): >8 µg/mL
MIC ([4]; isolate 30, M. fortuitum group, M. porcinum/M. boenickei): >8 µg/mL
MIC ([4]; isolate 31, M. fortuitum group, M. senegalense): ≤0.12 µg/mL
MIC ([4]; isolate 32, M. fortuitum group, M. senegalense): ≤0.12 µg/mL
MIC ([4]; isolate 33, M. fortuitum group, M. senegalense): ≤0.12 µg/mL
MIC ([4]; isolate 34, M. fortuitum group, M. senegalense): ≤0.12 µg/mL
MIC ([5]; isolate 18, M. chelonae): >8 µg/mL
MIC ([5]; isolate 19, M. chelonae): >8 µg/mL
MIC ([5]; isolate 20, M. chelonae): >8 µg/mL
MIC ([5]; isolate 21, M. chelonae): >8 µg/mL
MIC ([5]; isolate 22, M. chelonae): >8 µg/mL
MIC ([6]; isolate 39, M. mucogenicum group, M. mucogenicum): 0.25 µg/mL (≈ 0.563 µM)
MIC ([6]; isolate 40, M. mucogenicum group, M. mucogenicum): ≤0.12 µg/mL
MIC ([6]; isolate 41, M. mucogenicum group, M. mucogenicum): ≤0.12 µg/mL
MIC ([6]; isolate 42, M. mucogenicum group, M. mucogenicum): ≤0.12 µg/mL
MIC ([6]; isolate 43, M. mucogenicum group, M. phocaicum): ≤0.12 µg/mL
MIC ([6]; isolate 44, M. mucogenicum group, M. phocaicum): >8 µg/mL
MIC ([6]; isolate 45, M. mucogenicum group, M. phocaicum): >8 µg/mL
MIC ([6]; isolate 46, M. mucogenicum group, M. phocaicum): >8 µg/mL
MIC ([6]; isolate 47, M. mucogenicum group, M. phocaicum): 0.25 µg/mL (≈ 0.563 µM)
MIC ([6]; isolate 48, M. mucogenicum group, M. phocaicum): 4 µg/mL (≈ 9 µM)
MIC50 [7]: >8 µg/mL
MIC90 [7]: >8 µg/mL
MIC50 [8, 11]: >64 µg/mL
MIC90 [8, 11]: >64 µg/mL
MIC ([8]; isolate No. 1, BB2): >64 µg/mL
MIC ([8]; isolate No. 2, BB4): 2 µg/mL (≈ 4.5 µM)
MIC ([8]; isolate No. 3, 5922): 16 µg/mL (≈ 36 µM)
MIC ([8]; isolate No. 4, BB3): 4 µg/mL (≈ 9 µM)
MIC ([8]; isolate No. 5, BB6): 16 µg/mL (≈ 36 µM)
MIC ([8]; isolate No. 6, 5908): >64 µg/mL
MIC ([8]; isolate No. 7, BB7): 0.25 µg/mL (≈ 0.563 µM)
MIC ([8]; isolate No. 8, 6031): 2 µg/mL (≈ 4.5 µM)
MIC ([8]; isolate No. 9, 5785): 2 µg/mL (≈ 4.5 µM)
MIC ([8]; isolate No. 10, BB8): >64 µg/mL
MIC ([8]; isolate No. 11, 6111): >64 µg/mL
MIC ([8]; isolate No. 12, 6005): >64 µg/mL
MIC ([8]; isolate No. 13, 5605): >64 µg/mL
MIC ([8]; isolate No. 14, 5931): 16 µg/mL (≈ 36 µM)
MIC ([8]; isolate No. 15, BB1): >64 µg/mL
MIC ([8]; isolate No. 16, BB5): >64 µg/mL
MIC ([8]; isolate No. 17, 5812): >64 µg/mL
MIC ([8]; isolate No. 18, 5901): >64 µg/mL
MIC ([8]; isolate No. 19, 5960): 8 µg/mL (≈ 18 µM)
MIC ([8]; isolate No. 20, 6142): >64 µg/mL
MIC ([8]; isolate No. 21, 5922): 32 µg/mL (≈ 72 µM)
MIC ([8]; isolate No. 22, LT 949): >64 µg/mL
MIC ([8]; isolate No. 23, 6025): >64 µg/mL
MIC ([8]; isolate No. 24, 6153): >64 µg/mL
MIC50 ([9]; 20 clinical isolates): 8 µg/mL (≈ 18 µM)
MIC90 ([9]; 20 clinical isolates): 64 µg/mL (≈ 144 µM)
MIC ([9]; isolate No. 1, 3349): 16 µg/mL (≈ 36 µM)
MIC ([9]; isolate No. 2, 3499): 0.06 µg/mL (≈ 0.135 µM)
MIC ([9]; isolate No. 3, 2797): >64 µg/mL
MIC ([9]; isolate No. 4, 32): 0.125 µg/mL (≈ 0.281 µM)
MIC ([9]; isolate No. 5, 33): 0.125 µg/mL (≈ 0.281 µM)
MIC ([9]; isolate No. 6, 3489): 8 µg/mL (≈ 18 µM)
MIC ([9]; isolate No. 7, 3491): <0.06 µg/mL
MIC ([9]; isolate No. 8, 54): <0.06 µg/mL
MIC ([9]; isolate No. 9, 38): 0.5 µg/mL (≈ 1.13 µM)
MIC ([9]; isolate No. 10, 36): 0.125 µg/mL (≈ 0.281 µM)
MIC ([9]; isolate No. 11, 3480): 16 µg/mL (≈ 36 µM)
MIC ([9]; isolate No. 12, 3126): 16 µg/mL (≈ 36 µM)
MIC ([9]; isolate No. 13, 3579): 16 µg/mL (≈ 36 µM)
MIC ([9]; isolate No. 14, 7484): 64 µg/mL (≈ 144 µM)
MIC ([9]; isolate No. 15, 3488): 32 µg/mL (≈ 72 µM)
MIC ([9]; isolate No. 16, 3276): 0.25 µg/mL (≈ 0.563 µM)
MIC ([9]; isolate No. 17, 3442): 0.25 µg/mL (≈ 0.563 µM)
MIC ([9]; isolate No. 18, 3316): 32 µg/mL (≈ 72 µM)
MIC ([9]; isolate No. 19, 3490): 16 µg/mL (≈ 36 µM)
MIC ([9]; isolate No. 20, 2491): >64 µg/mL
MIC50 ([10]; 22 clinical isolates): 32 µg/mL (≈ 72 µM)
MIC90 ([10]; 22 clinical isolates): 64 µg/mL (≈ 144 µM)
MIC ([10]; isolate No. 1, MC 7323): 64 µg/mL (≈ 144 µM)
MIC ([10]; isolate No. 2, MC 7534): 32 µg/mL (≈ 72 µM)
MIC ([10]; isolate No. 3, MC 7368): 64 µg/mL (≈ 144 µM)
MIC ([10]; isolate No. 4, MC 7514): 32 µg/mL (≈ 72 µM)
MIC ([10]; isolate No. 5, MC 7584): 64 µg/mL (≈ 144 µM)
MIC ([10]; isolate No. 6, MC 7192): 16 µg/mL (≈ 36 µM)
MIC ([10]; isolate No. 7, MC 7466): 32 µg/mL (≈ 72 µM)
MIC ([10]; isolate No. 8, MC 7533): 64 µg/mL (≈ 144 µM)
MIC ([10]; isolate No. 9, MC 7579): 16 µg/mL (≈ 36 µM)
MIC ([10]; isolate No. 10, MC 7614): 64 µg/mL (≈ 144 µM)
MIC ([10]; isolate No. 11, MC 7414): 32 µg/mL (≈ 72 µM)
MIC ([10]; isolate No. 12, MC 7313): 32 µg/mL (≈ 72 µM)
MIC ([10]; isolate No. 13, MC 7281): 64 µg/mL (≈ 144 µM)
MIC ([10]; isolate No. 14, MC 7328): 16 µg/mL (≈ 36 µM)
MIC ([10]; isolate No. 15, MC 7294): 32 µg/mL (≈ 72 µM)
MIC ([10]; isolate No. 16, MC 14-S-03): 64 µg/mL (≈ 144 µM)
MIC ([10]; isolate No. 17, MC 14-S-04): 32 µg/mL (≈ 72 µM)
MIC ([10]; isolate No. 18, MC 14-S-05): 32 µg/mL (≈ 72 µM)
MIC ([10]; isolate No. 19, MC 14-S-06): 64 µg/mL (≈ 144 µM)
MIC ([10]; isolate No. 20, MC 14-S-07): 32 µg/mL (≈ 72 µM)
MIC ([10]; isolate No. 21, MC 35757): 32 µg/mL (≈ 72 µM)
MIC ([10]; isolate No. 22, MC 7302): 64 µg/mL (≈ 144 µM)
